Source: patent US20230151025A1, “SUBSTITUTED THIAZOLOPYRIDINES, SALTS THEREOF AND THEIR USE AS HERBICIDALLY ACTIVE SUBSTANCES” (Bayer Aktiengesellschaft, priority 2020, published 2023)

Experiments:
Format in all cases: in vivo
[1] = tested on: Echinochloa crus-galli (ECHCG); assay: Herbicidal post-emergence action (D), 320 g/ha; conditions: ca. 3 weeks
How it was run: (§1)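 Post-emergence greenhouse test. Sandy loam; spray at single-leaf stage (2–3 wk after sowing); WP or EC in water + 0.5% additive, 600 l/ha. Visual rating ~3 wk post-spray, % effect vs untreated (0 = control, 100 = dead).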

[2] = tested on: Amaranthus retroflexus (AMARE); assay: Herbicidal post-emergence action (D), 320 g/ha; conditions: ca. 3 weeks
How it was run: as §1

[3] = tested on: Alopecurus myosuroides (ALOMY); assay: Herbicidal post-emergence action (D), 320 g/ha; conditions: ca. 3 weeks
How it was run: as §1

[4] = tested on: Polygonum convolvulus (POLCO); assay: Herbicidal post-emergence action (D), 320 g/ha; conditions: ca. 3 weeks
How it was run: as §1

[5] = tested on: Veronica persica (VERPE); assay: Herbicidal post-emergence action (D), 320 g/ha; conditions: ca. 3 weeks
How it was run: as §1

[6] = tested on: Digitaria sanguinalis (DIGSA); assay: Herbicidal post-emergence action (B), 1280 g/ha; conditions: rated visually after about 3 weeks vs untreated controls
How it was run: (§2)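 Percent activity is a visual score taken about 3 weeks after treatment, relative to untreated plants, where 100% means the plants died and 0% means no difference from controls. Plants were sprayed on green parts at the one-leaf stage with an aqueous suspension or emulsion containing 0.5% additive at 600 L/ha.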

[7] = tested on: Abutilon theophrasti (ABUTH); assay: Herbicidal post-emergence action (B), 1280 g/ha; conditions: rated visually after about 3 weeks vs untreated controls
How it was run: as §2

[8] = tested on: Echinochloa crus-galli (ECHCG); assay: Herbicidal post-emergence action (B), 1280 g/ha; conditions: rated visually after about 3 weeks vs untreated controls
How it was run: as §2

[9] = tested on: Amaranthus retroflexus (AMARE); assay: Herbicidal post-emergence action (B), 1280 g/ha; conditions: rated visually after about 3 weeks vs untreated controls
How it was run: as §2

[10] = tested on: Kochia scoparia (KCHSC; Bassia scoparia); assay: Herbicidal post-emergence action (B), 1280 g/ha
How it was run: as §2

[11] = tested on: Alopecurus myosuroides (ALOMY); assay: Herbicidal post-emergence action (B), 1280 g/ha; conditions: rated visually after about 3 weeks vs untreated controls
How it was run: as §2

[12] = tested on: Setaria viridis (SETVI); assay: Herbicidal post-emergence action (B), 1280 g/ha; conditions: rated visually after about 3 weeks vs untreated controls
How it was run: as §2

[13] = tested on: Lolium rigidum (LOLRI); assay: Herbicidal post-emergence action (B), 1280 g/ha; conditions: one-leaf stage, rated after about 3 weeks vs untreated controls, 100% activity = the plants have died, 0% = like control plants
How it was run: as §2

[14] = tested on: Poa annua (POAAN); assay: Herbicidal post-emergence action (B), 1280 g/ha; conditions: rated visually after about 3 weeks vs untreated controls
How it was run: as §2

[15] = tested on: Stellaria media (STEME); assay: Herbicidal post-emergence action (B), 1280 g/ha
How it was run: as §2

[16] = tested on: Veronica persica (VERPE); assay: Herbicidal post-emergence action (B), 1280 g/ha
How it was run: as §2

[17] = tested on: Echinochloa crus-galli (ECHCG); assay: Herbicidal pre-emergence action (C), 320 g/ha; conditions: ca. 3 weeks
How it was run: (§3)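 Pre-emergence greenhouse test: visual damage rating at about 3 weeks relative to untreated plants, 100% meaning death and 0% no effect. Compounds, as wettable powders or emulsifiable concentrates with 0.5% additive, were applied at 320 g/ha (600 l water/ha) onto soil covering seeds sown in sandy loam.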

[18] = tested on: Amaranthus retroflexus (AMARE); assay: Herbicidal pre-emergence action (C), 320 g/ha; conditions: ca. 3 weeks
How it was run: as §3

[19] = tested on: Alopecurus myosuroides (ALOMY); assay: Herbicidal pre-emergence action (C), 320 g/ha; conditions: ca. 3 weeks
How it was run: as §3

[20] = tested on: Setaria viridis (SETVI); assay: Herbicidal pre-emergence action (C), 320 g/ha; conditions: ca. 3 weeks
How it was run: as §3

[21] = tested on: Lolium rigidum (LOLRI); assay: Herbicidal pre-emergence action (C), 320 g/ha; conditions: ca. 3 weeks
How it was run: as §3

[22] = tested on: Veronica persica (VERPE); assay: Herbicidal pre-emergence action (C), 320 g/ha; conditions: ca. 3 weeks
How it was run: as §3

SMILES | herbicidal effect ECHCG [1] | herbicidal effect AMARE [2] | herbicidal effect ALOMY [3] | herbicidal effect POLCO [4] | herbicidal effect VERPE [5] | herbicidal activity DIGSA [6] | herbicidal activity ABUTH [7] | herbicidal activity ECHCG [8] | herbicidal activity AMARE [9] | herbicidal effect KCHSC [10] | herbicidal activity ALOMY [11] | herbicidal activity SETVI [12] | LOLRI, activity rated visually (%) [13] | herbicidal activity POAAN [14] | herbicidal effect STEME [15] | herbicidal effect VERPE [16] | herbicidal effect ECHCG [17] | herbicidal effect AMARE [18] | herbicidal effect ALOMY [19] | herbicidal effect SETVI [20] | other results
CCc1cc2scnc2nc1-c1ccccc1 [Example I-051] | 90% | 90% | 90% | 90% | 90% | 100% | 90% | 100% | 100% | 90% | 100% | 100% | 100% | 100% | 100% | 100% | 100% | 90% | 100% | 100% | herbicidal effect LOLRI [21]: 100%; herbicidal effect VERPE [22]: 90%
Cc1cc2scnc2nc1-c1sccc1Cl [Example I-137] | 90% | 90% | 90% | 80% | 80% | 100% | 90% | 100% | 100% | 90% | 100% | 100% | 90% | 100% | 100% | 100% | 100% | 90% | 100% | 100% | herbicidal effect LOLRI [21]: 100%; herbicidal effect VERPE [22]: 90%
